Data on six molecules can be found in publication PMC10247784, “Physiological activation of human and mouse bitter taste receptors by bile acids” (Communications Biology, 2023).

Holding throughout (format): cell-based
In one assay the target is T1, human TAS2R4 (Homo sapiens, UniProt Q9NYW5).
T1 construct: expressed in transfected cells; host or cells: HEK293T-Gα16gust44
T1 sequence (Q9NYW5 1-299): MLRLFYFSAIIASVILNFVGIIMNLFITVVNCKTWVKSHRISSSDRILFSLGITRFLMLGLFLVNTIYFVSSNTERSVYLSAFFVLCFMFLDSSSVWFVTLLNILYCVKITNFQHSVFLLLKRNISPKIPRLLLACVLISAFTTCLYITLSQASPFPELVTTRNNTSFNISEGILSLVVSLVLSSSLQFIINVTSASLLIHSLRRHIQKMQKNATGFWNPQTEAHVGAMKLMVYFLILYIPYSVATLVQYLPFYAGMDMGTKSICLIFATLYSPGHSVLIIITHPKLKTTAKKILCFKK
Put plainly: Calcium imaging assay (FLIPR), HEK293T-Gα16gust44 cells transfected with human TAS2R4. The settings on record: TAS2R4, positive control at 3 mM. The protocol:
(§1) This set of bile acids was chosen because of their commercial availability in high purities, their diversity within the class of bile acids and their previous detection and quantitation in human blood. Stock solutions were prepared in DMSO.
(§2) As basal growth medium for the HEK293T-Gα16gust44 cell line[17],[59] served Dulbecco’s modified eagle medium (DMEM) (Thermo Fisher Scientific, Darmstadt, Germany) supplemented with 10 % fetal bovine serum (Sigma-Aldrich, Steinheim, Germany), 2 mM L-glutamine (Sigma-Aldrich, Steinheim, Germany), 100 units/ml penicillin (Sigma Aldrich, Steinheim, Germany) and 100 µg/ml streptomycin (Sigma Aldrich, Steinheim, Germany). Growth conditions were 37 °C, 5 % CO2 and saturated air-humidity[60].
(§3) HEK293T-Gα16gust44 cells were seeded on poly-D-lysine (10 µg/ml) coated 96-well plates to reach a confluence of 40-60 % the next day. For transient transfection 150 ng of plasmid DNA containing the receptor of interest and 0.3 µl lipofectamine 2000 (Thermo Fisher Scientific, Darmstadt, Germany) per well were used and transfection took place according to the manual of lipofectamine 2000. […] The empty vector DNA (mock) was transfected as negative control[14],[41].
(§4) Cells were loaded using the calcium-sensitive fluorescent dye Fluo-4-AM (Abcam, Cambridge, Great Britain) in the presence of 2.5 mM probenecid (Sigma-Aldrich, Steinheim, Germany) the day after transfection[13],[41]. 1 h after loading, cells were washed with C1 buffer using a BioTek Cell Washer, incubated in the dark for half an hour and washed again. For automated agonist application and measurement of fluorescence changes, a FLIPR^TETRA device (Molecular Devices, San José, United States) was used. Viability of cells was tested by application of 100 nM Somatostatin 14 (Bachem, Bubendorf, Switzerland)[42].
(§5) Measured data were negative control corrected by subtracting the signal of the mock-transfected cells and exported to Microsoft Excel using the FLIPR software ScreenWorks 4.2. In Microsoft Excel software, standardization of maximum fluorescence intensities to the basal fluorescence and normalization to the buffer-only control was done to calculate the relative fluorescence changes (ΔF/F).
(§6) Initial screening experiments performed in duplicate wells were confirmed by at least one replication and representative traces were selected for display. All dose-response relationships were determined by three independent experiments (biological replicates) performed in duplicates (technical replicates). Threshold concentrations, defined as lowest substance concentrations leading to statistically significant elevated fluorescence changes in receptor-transfected cells compared with empty vector-transfected cells, were determined using SigmaPlot with Student’s t-test to evaluate statistical significance (p < 0.01).

The target in another assay is T2, human TAS2R46 (Homo sapiens, UniProt P59540).
T2 construct: expressed in transfected cells; host or cells: HEK293T-Gα16gust44
T2 sequence (P59540 1-309): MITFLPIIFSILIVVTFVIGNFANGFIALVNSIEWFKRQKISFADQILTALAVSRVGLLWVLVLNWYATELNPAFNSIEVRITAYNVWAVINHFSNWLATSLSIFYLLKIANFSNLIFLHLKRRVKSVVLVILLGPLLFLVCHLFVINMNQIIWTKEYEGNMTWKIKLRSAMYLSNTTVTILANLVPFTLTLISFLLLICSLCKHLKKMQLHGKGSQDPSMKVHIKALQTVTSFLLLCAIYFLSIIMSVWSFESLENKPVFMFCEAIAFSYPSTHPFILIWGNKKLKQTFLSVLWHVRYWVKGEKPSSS
Description: Calcium imaging assay (FLIPR), HEK293T-Gα16gust44 cells transfected with human TAS2R46. As to conditions: TAS2R46, positive control at 10 µM. The protocol:
as §1, §2, §3, §4, §5, §6

In a further assay the target is T3, human TAS2R14 (Homo sapiens, UniProt Q9NYV8).
T3 construct: expressed in transfected cells; host or cells: HEK293T-Gα16gust44
T3 sequence (Q9NYV8 1-317): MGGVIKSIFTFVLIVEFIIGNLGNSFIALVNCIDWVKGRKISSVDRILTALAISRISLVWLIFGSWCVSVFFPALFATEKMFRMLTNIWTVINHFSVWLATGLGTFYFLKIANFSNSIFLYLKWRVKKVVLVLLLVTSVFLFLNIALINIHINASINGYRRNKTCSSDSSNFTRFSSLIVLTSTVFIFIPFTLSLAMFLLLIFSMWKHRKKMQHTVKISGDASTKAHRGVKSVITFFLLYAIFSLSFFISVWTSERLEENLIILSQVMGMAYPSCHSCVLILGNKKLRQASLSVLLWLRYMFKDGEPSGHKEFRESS
Description: Calcium imaging assay (FLIPR), HEK293T-Gα16gust44 cells transfected with human TAS2R14. The method, then: as §1, §2, §3, §4, §5, §6

A further assay addresses T4, human TAS2R39 (Homo sapiens, UniProt P59534).
T4 construct: expressed in transfected cells; host or cells: HEK293T-Gα16gust44
T4 sequence (P59534 1-338): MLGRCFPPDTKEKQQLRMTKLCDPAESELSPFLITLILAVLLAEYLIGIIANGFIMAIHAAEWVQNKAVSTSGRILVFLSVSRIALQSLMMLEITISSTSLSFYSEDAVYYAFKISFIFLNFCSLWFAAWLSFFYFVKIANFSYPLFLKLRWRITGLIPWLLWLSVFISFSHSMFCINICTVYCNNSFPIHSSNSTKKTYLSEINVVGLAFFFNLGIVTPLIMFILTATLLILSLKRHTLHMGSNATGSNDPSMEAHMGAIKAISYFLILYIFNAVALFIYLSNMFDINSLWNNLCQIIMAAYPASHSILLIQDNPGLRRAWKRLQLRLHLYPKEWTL
Put plainly: Calcium imaging assay (FLIPR), HEK293T-Gα16gust44 cells transfected with human TAS2R39. As to conditions: TAS2R39, positive control at 3 mM. The method, then: as §1, §2, §3, §4, §5, §6

In another assay the target is T5, human TAS2R1 (Homo sapiens, UniProt Q9NYW7).
T5 construct: expressed in transfected cells; host or cells: HEK293T-Gα16gust44
T5 sequence (Q9NYW7 1-299): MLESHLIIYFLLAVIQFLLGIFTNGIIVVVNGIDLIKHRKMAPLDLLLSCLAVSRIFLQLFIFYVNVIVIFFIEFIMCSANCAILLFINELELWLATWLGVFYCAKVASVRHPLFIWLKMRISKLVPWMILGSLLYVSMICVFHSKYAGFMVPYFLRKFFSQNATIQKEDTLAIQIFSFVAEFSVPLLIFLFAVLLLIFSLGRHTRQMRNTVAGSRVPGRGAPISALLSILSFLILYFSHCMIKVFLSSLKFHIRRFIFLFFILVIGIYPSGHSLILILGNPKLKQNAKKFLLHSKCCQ
Description: Calcium imaging assay (FLIPR), HEK293T-Gα16gust44 cells transfected with human TAS2R1. The settings on record: TAS2R1, positive control at 1 mM. The method, then: as §1, §2, §3, §4, §5, §6

Several values for one entry are separate records, joined by “and”; a condition that tells them apart may be missing. Identical values can stand only once.

On to `COc1cc2c(c(OC)c1OC)-c1ccc(OC)c(=O)cc1[C@@H](NC(C)=O)CC2` [Colchicin], for which, on human TAS2R4 (mean), the “Efficacy = maximal amplitude (ΔF/F)” value amounted to 0.02059. The “Efficacy (maximal amplitude ΔF/F), individual data points” value (“Efficacy (maximal amplitude ΔF/F)” for short) at human TAS2R4 (single replicates) was 0.02499 and 0.02039 and 0.01223.

Turning to `O=C1C[C@@H]2OCC=C3CN4CC[C@]56c7ccccc7N1[C@H]5[C@H]2[C@H]3C[C@H]46` [Strychnin], on human TAS2R46 (single replicates), the “Efficacy (maximal amplitude ΔF/F)” value was 0.1901 and 0.2368 and 0.2851.

Turning to `COc1cccc2c1cc([N+](=O)[O-])c1c(C(=O)O)cc3c(c12)OCO3` [aristolochic acid, reference compound], the “Efficacy = maximal amplitude (ΔF/F)” value at human TAS2R14 (TAS2R14, positive control at 10 µM, mean) amounted to 0.4945. For the same molecule, the “Efficacy (maximal amplitude ΔF/F)” value at human TAS2R14 (TAS2R14, positive control at 10 µM, single replicates) was 0.6939 and 0.4242 and 0.3654. Further, the “Efficacy (signal amplitude) versus control stimulus, TAS2R14” value at human TAS2R14 (highest applied concentrations, control 10 µM aristolochic acid) is given as “about twice as high as the most effective bile acids”.

Take `CC[N+](CC)(CC(=O)Nc1c(C)cccc1C)Cc1ccccc1` [denatonium benzoate, reference compound]: the “Efficacy = maximal amplitude (ΔF/F)” value at human TAS2R39 (mean) came out at 0.08257. Further, at human TAS2R39 (single replicates), the “Efficacy (maximal amplitude ΔF/F)” value is 0.09973 and 0.06456 and 0.07602.

As to `C=C(C)[C@@H]1[C@H]2OC(=O)[C@@H]1[C@]1(O)C[C@H]3O[C@]34C(=O)O[C@H]2[C@]14C` [picrotoxinin, reference compound], the “Efficacy = maximal amplitude (ΔF/F)” value at human TAS2R1 (mean) came to 0.1084. Also, the “Efficacy (maximal amplitude ΔF/F)” value at human TAS2R1 (single replicates) is 0.08063 and 0.1121 and 0.1325.

In the case of `O=C1C[C@@H]2OCC=C3CN4CC[C@]56c7ccccc7N1[C@H]5[C@H]2[C@H]3C[C@H]46` [strychnine, reference compound], the “Efficacy = maximal amplitude (ΔF/F)” value at human TAS2R46 (mean) is reported as 0.2373.
